# Source: patent US6737383B1, “Herbicidal oxadiazolidines” (priority 1999, dated 2004)
# Columns and labels:
# [1] = system: blackgrass; assay: Test B pre/postemergence blackgrass; format: in vivo, Alopecurus myosuroides
# Method in brief: (§1)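 Herbicidal effect was estimated by eye on a ten-point control scale after plants spent twelve to sixteen days in a greenhouse following soil or foliar treatment. Foliar sprays targeted plants at one to four leaves; all doses were formulated in a non-phytotoxic solvent with surfactant.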
# [2] = system: surinam grass; assay: Test B pre/postemergence surinam grass; format: in vivo, Brachiaria decumbens
# Method in brief: as §1
# [3] = system: cocklebur; assay: Test B pre/postemergence cocklebur; format: in vivo, Xanthium strumarium
# Method in brief: as §1
# [4] = system: corn; assay: Test B pre/postemergence corn; format: in vivo, Zea mays
# Method in brief: as §1
# [5] = system: crabgrass; assay: Test B pre/postemergence crabgrass; format: in vivo, Digitaria sanguinalis
# Method in brief: as §1
# [6] = system: giant foxtail; assay: Test B pre/postemergence giant foxtail; format: in vivo, Setaria faberii
# Method in brief: as §1
# [7] = system: morningglory; assay: Test B pre/postemergence morningglory; format: in vivo, Ipomoea hederacea
# Method in brief: as §1
# [8] = system: pigweed; assay: Test B pre/postemergence pigweed; format: in vivo, Amaranthus retroflexus
# Method in brief: as §1
# [9] = system: rape; assay: Test B pre/postemergence rape; format: in vivo, Brassica napus
# Method in brief: as §1
# [10] = system: soybean; assay: Test B pre/postemergence soybean; format: in vivo, Glycine max
# Method in brief: as §1
# [11] = system: sugar beet; assay: Test B pre/postemergence sugar beet; format: in vivo, Beta vulgaris
# Method in brief: as §1
# [12] = system: velvetleaf; assay: Test B pre/postemergence velvetleaf; format: in vivo, Abutilon theophrasti
# Method in brief: as §1
# [13] = system: wild oat; assay: Test B pre/postemergence wild oat; format: in vivo, Avena fatua
# Method in brief: as §1
# [14] = system: purple nutsedge; assay: Test B pre/postemergence purple nutsedge; format: in vivo, Cyperus rotundus
# Method in brief: as §1
# [15] = system: smallflower flatsedge; assay: Test B flood test smallflower flatsedge; format: in vivo, Cyperus difformis
# Method in brief: (§2)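 Plants were grown to the 2-leaf stage before treatment with test chemical, then held in a greenhouse for twelve to sixteen days. Injury was visually rated against untreated controls on a 0–10 scale, where 0 is no effect and 10 is complete control.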
# [16] = system: bamyardgrass; assay: Test B flood test barnyardgrass; format: in vivo, Echinochloa crus-galli
# Method in brief: as §2
# [17] = Preemergence, Rate 62 g/ha, scale of 0 to 10 where 0 is no effect and 10 is complete control
# [18] = Preemergence, Rate 125 g/ha, 0 is no effect, 10 is complete control
# [19] = Preemergence, Rate 250 g/ha, scale 0 to 10, 0 is no effect, 10 is complete control
# [20] = Preemergence, Rate 500 g/ha, scale of 0 to 10 where 0 is no effect and 10 is complete control
# [21] = Rate 62 g/ha, Postemergence, scale of 0 to 10 where 0 is no effect and 10 is complete control
# [22] = Rate 125 g/ha, Postemergence, scale 0 to 10
# [23] = Rate 500 g/ha, Postemergence, scale 0 to 10
# [24] = Rate 62 g/ha, headed Pre-emergence (flood test species), scale 0 to 10 (0 no effect, 10 complete control)
# [25] = Rate 125 g/ha, Pre-emergence, flood test species, scale 0 to 10 where 0 is no effect and 10 is complete control
# [26] = Rate 250 g/ha, Pre-emergence, flood-test species, scale 0 to 10, 0 is no effect, 10 is complete control
smiles,measurement,setting,value
CC(C)N(C(=O)n1oc(=O)n(-c2ccc(OC(F)(F)F)cc2)c1=O)c1ccc(F)cc1 [Compound 202],Blackgrass plant response rating,[1]; [17],0
same,Blackgrass plant response rating (0 to 10 scale),[1]; [18],0
same,Blackgrass plant response rating,[1]; [19],5
same,"Plant response rating, Blackgrass",[1]; [20],2
same,Blackgrass plant response rating,[1]; [21],0
same,Blackgrass plant response rating,[1]; [22],3
same,"Plant response rating (0 to 10; 0 is no effect, 10 is complete control), Blackgrass","[1]; Rate 250 g/ha, Postemergence",5
same,Blackgrass plant response rating,[1]; [23],6
same,B. signalgrass plant response rating,[2]; [17],0
same,B. signalgrass plant response rating (0 to 10 scale),[2]; [18],0
same,B. signalgrass plant response rating,[2]; [19],0
same,"Plant response rating, B. signalgrass",[2]; [20],0
same,B. signalgrass plant response rating,[2]; [21],0
same,B. signalgrass plant response rating,"[2]; Rate 125 g/ha, Postemergence, scale 0 (no effect) to 10 (complete control)",0
same,"Plant response rating, B. signalgrass","[2]; Rate 250 g/ha, Postemergence, scale 0 to 10, 0 is no effect, 10 is complete control",0
same,B. signalgrass plant response rating,"[2]; Rate 500 g/ha, Postemergence, scale 0 to 10, 0 no effect, 10 complete control",0
same,Cocklebur plant response rating,[3]; [17],0
same,Cocklebur plant response rating (0 to 10 scale),[3]; [18],0
same,Cocklebur plant response rating,[3]; [19],0
same,"Plant response rating, Cocklebur",[3]; [20],0
same,Cocklebur plant response rating,[3]; [21],0
same,Cocklebur plant response rating,[3]; [22],0
same,"Plant response rating (0 to 10; 0 is no effect, 10 is complete control), Cocklebur","[3]; Rate 250 g/ha, Postemergence",2
same,Cocklebur plant response rating,[3]; [23],2
same,Corn plant response rating,[4]; [17],0
same,Corn plant response rating (0 to 10 scale),[4]; [18],0
same,Corn plant response rating,[4]; [19],0
same,"Plant response rating, Corn",[4]; [20],0
same,Corn plant response rating,[4]; [21],0
same,Corn plant response rating,[4]; [22],0
same,"Plant response rating (0 to 10; 0 is no effect, 10 is complete control), Corn","[4]; Rate 250 g/ha, Postemergence",0
same,Corn plant response rating,[4]; [23],0
same,Crabgrass plant response rating,[5]; [17],3
same,Crabgrass plant response rating (0 to 10 scale),[5]; [18],4
same,Crabgrass plant response rating,[5]; [19],6
same,"Plant response rating, Crabgrass",[5]; [20],9
same,Crabgrass plant response rating,[5]; [21],0
same,Crabgrass plant response rating,[5]; [22],0
same,"Plant response rating (0 to 10; 0 is no effect, 10 is complete control), Crabgrass","[5]; Rate 250 g/ha, Postemergence",1
same,Crabgrass plant response rating,[5]; [23],4
same,Giant foxtail plant response rating,[6]; [17],2
same,Giant foxtail plant response rating (0 to 10 scale),[6]; [18],6
same,Giant foxtail plant response rating,[6]; [19],7
same,"Plant response rating, Giant foxtail",[6]; [20],10
same,Giant foxtail plant response rating,[6]; [21],0
same,Giant foxtail plant response rating,[6]; [22],0
same,"Plant response rating (0 to 10; 0 is no effect, 10 is complete control), Giant foxtail","[6]; Rate 250 g/ha, Postemergence",0
same,Giant foxtail plant response rating,[6]; [23],2
same,Morningglory plant response rating,[7]; [17],0
same,Morningglory plant response rating (0 to 10 scale),[7]; [18],0
same,Morningglory plant response rating,[7]; [19],0
same,"Plant response rating, Morningglory",[7]; [20],1
same,Morningglory plant response rating,[7]; [21],2
same,Morningglory plant response rating,[7]; [22],5
same,"Plant response rating (0 to 10; 0 is no effect, 10 is complete control), Morningglory","[7]; Rate 250 g/ha, Postemergence",8
same,Morningglory plant response rating,[7]; [23],9
same,Redroot pigweed plant response rating,[8]; [17],0
same,Redroot pigweed plant response rating (0 to 10 scale),[8]; [18],0
same,Redroot pigweed plant response rating,[8]; [19],8
same,"Plant response rating, Redroot pigweed",[8]; [20],3
same,Redroot pigweed plant response rating,[8]; [21],3
same,Redroot pigweed plant response rating,[8]; [22],4
same,"Plant response rating (0 to 10; 0 is no effect, 10 is complete control), Redroot pigweed","[8]; Rate 250 g/ha, Postemergence",6
same,Redroot pigweed plant response rating,[8]; [23],7
same,Rape plant response rating,[9]; [17],0
same,Rape plant response rating (0 to 10 scale),[9]; [18],0
same,Rape plant response rating,[9]; [19],0
same,"Plant response rating, Rape",[9]; [20],0
same,Rape plant response rating,[9]; [21],1
same,Rape plant response rating,[9]; [22],1
same,"Plant response rating (0 to 10; 0 is no effect, 10 is complete control), Rape","[9]; Rate 250 g/ha, Postemergence",1
same,Rape plant response rating,[9]; [23],4
same,Soybean plant response rating,[10]; [17],0
same,Soybean plant response rating (0 to 10 scale),[10]; [18],0
same,Soybean plant response rating,[10]; [19],0
same,"Plant response rating, Soybean",[10]; [20],0
same,Soybean plant response rating,[10]; [21],2
same,Soybean plant response rating,[10]; [22],2
same,"Plant response rating (0 to 10; 0 is no effect, 10 is complete control), Soybean","[10]; Rate 250 g/ha, Postemergence",3
same,Soybean plant response rating,[10]; [23],3
same,Sugarbeets plant response rating,[11]; [17],0
same,Sugarbeets plant response rating (0 to 10 scale),[11]; [18],0
same,Sugarbeets plant response rating,[11]; [19],3
same,"Plant response rating, Sugarbeets",[11]; [20],1
same,Sugarbeets plant response rating,[11]; [21],0
same,Sugarbeets plant response rating,[11]; [22],3
same,"Plant response rating (0 to 10; 0 is no effect, 10 is complete control), Sugarbeets","[11]; Rate 250 g/ha, Postemergence",4
same,Sugarbeets plant response rating,[11]; [23],4
same,Velvetleaf plant response rating,[12]; [17],0
same,Velvetleaf plant response rating,[12]; [19],6
same,"Plant response rating, Velvetleaf",[12]; [20],1
same,Velvetleaf plant response rating,[12]; [21],0
same,Velvetleaf plant response rating,[12]; [22],0
same,"Plant response rating (0 to 10; 0 is no effect, 10 is complete control), Velvetleaf","[12]; Rate 250 g/ha, Postemergence",0
same,Wild oats plant response rating,[13]; [17],0
same,Wild oats plant response rating,[13]; [19],0
same,"Plant response rating, Wild oats",[13]; [20],5
same,Wild oats plant response rating,[13]; [21],0
same,Wild oats plant response rating,[13]; [22],0
same,"Plant response rating (0 to 10; 0 is no effect, 10 is complete control), Wild oats","[13]; Rate 250 g/ha, Postemergence",0
same,Nutsedge plant response rating,[14]; [17],0
same,Nutsedge plant response rating,[14]; [21],0
same,Nutsedge plant response rating,[14]; [22],0
same,"Plant response rating (0 to 10; 0 is no effect, 10 is complete control), Nutsedge","[14]; Rate 250 g/ha, Postemergence",0
same,Nutsedge plant response rating,[14]; [23],0
same,S. Flatsedge plant response rating,[15]; [24],0
same,S. Flatsedge plant response rating,[15]; [25],0
same,S. Flatsedge plant response rating,[15]; [26],0
same,S. Flatsedge plant response rating,"[15]; Rate 500 g/ha, Pre-emergence, flood test species, scale 0 to 10 (0 no effect, 10 complete control)",0
same,Barnyardgrass plant response rating,[16]; [24],0
same,Barnyardgrass plant response rating,[16]; [25],0
same,Barnyardgrass plant response rating,[16]; [26],0
same,"Plant response rating, Barnyardgrass","[16]; Rate 500 g/ha, headed Pre-emergence (flood test species), scale 0 to 10 (0 no effect, 10 complete control)",0
